Data as given in US6262095A, “Use of tricyclic derivatives of 1,4-dihydro-1,4-dioxo-1H-naphthalene, novel compounds obtained and their application in theraphy” (Laboratoire Innothera, priority 1995, dated 2001).

Tests used:
[1] = test system: saphenous vein in rabbits; assay: Contractile effect on the rabbit saphenous vein precontracted by a depolarizing physiological solution (K+ 40 mM); format: cell-based; settings: Oryctolagus cuniculus, precontracted with 40 mM potassium
Description: (§1) The contractile effects are measured in vitro under static conditions on vascular capacitance or resistance rings of saphenous, femoral, jugular, mesenteric, and caval veins . . . and on femoral, carotid, basilar, or mesenteric arteries, as well as the thoracic or abdominal aorta . . . in rats (Wistar, 200-250 g), rabbits (New Zealand, 2-2.5 kg), guinea pigs (Dunkin Hartley 250-300 g).
(§2) The rings are placed in a chamber for isolated organs (25 mL for capacitance vessels and 2.5 mL for resistance vessels according to Mulvany), and maintained under isometric conditions using two rigid threads inserted inside the vessel, avoiding causing damage to the endothelium. The vessels are bathed in a modified Krebs solution (in mM: NaCl=118; KCl=4.6; CaCl2 =2.5; MgSO4 =1.2; KH2 PO4 =1.17; NaHCO3 =25; glucose=11), continuously aerated using a gaseous mixture of 95% O2 and 5% Co2, at a pH=7.4, and regulated by thermostat at 37° C. The rings are adjusted to their optimal point as far as the tension-length relationship is concerned. The tensions developed generate an electrical signal through the intermediary of a force sensor (Wheatstone bridge). […] The pharmacological studies are carried out after a few standardized preliminary contractile stimulations using a depolarizing solution (hyperpotassic type obtained by replacing NaCl with KCl in equimolar quantities), along with rinsings and periods of equilibration in a pure physiological solution. The presence of endothelium is verified by the relaxation induced by increasing the concentration of acetylcholine after the stabilization of a vascular precontraction.
The forces of contraction developed by the vascular rings in response to the different compounds are studied on quiescent or electrically stimulated vessels (5-8 Hz), by a "physiological" depolarizing hyperpotassic solution (KCl: 20, 40 mM), by noradrenaline (increasing concentrations), [and by] serotonin (increasing concentrations).
The contractions are expressed in mg force or as a percentage of the maximum contraction at the time of the depolarization with a "physiological" hyperpotassic solution.
The contractile effect of different compounds on the saphenous vein in rabbits, precontracted by a depolarizing "physiological" solution with a potassium concentration of 40 mM, is given as an illustration; the maximum effect produced by each compound is expressed as a percentage of the maximum contraction induced by depolarizing hyperpotassic solutions and as value of ED50): […]

jugular vein of the rat = assay: Contraction of rat jugular vein under depolarizing hyperpotassic conditions; format: cell-based; settings: pH 7.4, read-out: ED50 (contraction)
Description: as §1
as §2, with “concerned.” for “concerned. The tensions developed generate an electrical signal through the intermediary of a force sensor (Wheatstone bridge).”, “The presence of endothelium is verified by the relaxation induced by increasing the concentration of acetylcholine after the stabilization of a vascular precontraction.” left out

[2] = test system: perfused mesenteric venous network of rats; assay: Contraction of the perfused mesenteric venous network of rats; format: cell-based; settings: rat perfused mesenteric venous network, depolarizing hyperpotassic conditions; read-out: ED50 (contraction)
Description: (§3) The contractile effects are also measured in vitro under dynamic flow conditions, by the pressure developed by the vascular beds that are perfused at a constant flow rate. At the mesenteric level, the selective effect on veins is studied using the model of a double simultaneous and separate infusion of the arterial and venous networks model developed by T. Warner (British J. Pharmacol., 1990, Vol. 99, pp. 427-433). The separation of the two networks is achieved by cutting the vessels and the tissues along the intestinal border. The networks are perfused at 2 mL.min^-1 with a Krebs solution (37.5° C.), which is aerated using 95% O2 and 5% CO2. In vivo, the arterial and venous pressures are measured in the anesthetized animal, under basal conditions and after circulatory arrest caused by the swelling of a balloon catheter introduced at the level of the left atrium. During the cardiac arrest, the venous tone (average circulatory filling pressure at a constant blood volume) is calculated from the venous and arterial pressures measured at equilibrium and corrected as a function of the relative differences in compliance between these two networks (Samar & Coleman, Am. J. Physiol., 1978, Vol. 234: pp. H94-100; Yamamoto et al., Am. J. Physiol., 1980, Vol. 238: pp. H823-828).

carotid arteries of rats = assay: Contraction of rat carotid arteries under depolarizing hyperpotassic conditions; format: cell-based; settings: pH 7.4, read-out: ED50 (contraction)
Description: as §1
as §2, with “concerned.” for “concerned. The tensions developed generate an electrical signal through the intermediary of a force sensor (Wheatstone bridge).”, “The presence of endothelium is verified by the relaxation induced by increasing the concentration of acetylcholine after the stabilization of a vascular precontraction.” left out

[3] = test system: basilar artery of rabbits; assay: Contraction of rabbit basilar artery under depolarizing hyperpotassic conditions; format: cell-based
Description: as §1
as §2, with “concerned.” for “concerned. The tensions developed generate an electrical signal through the intermediary of a force sensor (Wheatstone bridge).”, “The presence of endothelium is verified by the relaxation induced by increasing the concentration of acetylcholine after the stabilization of a vascular precontraction.” left out

[4] = test system: pleurisy by carrageenin in rats; assay: Pleurisy induced by carrageenin in rats; format: in vivo; settings: rat, oral 3×5 mg
Description: The anti-inflammatory activity of the compounds is also studied by measuring the inhibition of the edema and the leukocyte migration after the induction of pleurisy in rats by the injection of carrageenin into the pleural cavity (Almeida et al., J. Pharmacol. Exp. Therap., 1980, Vol. 214: p. 74). The rats are treated orally using the compounds 2 h before the injection of carrageenin, and 2 and 4 h after this injection. After a predetermined time (6 h) following the induction of pleurisy, the rats are sacrificed; the pleural liquid is recovered by aspiration, and its volume is measured. The leukocytic cells are counted using the "cell counter" technique. The results are expressed as the number of leukocytes in the exudate expressed with respect to 100 g of animal weight and compared with those of the control lot.

[5] = test system: arterial pressure of the anesthetized rat; assay: Arterial pressure of the anesthetized rat; format: in vivo; settings: i.v. bolus at least up to 28 mg/kg
Description: as §3

`O=C1c2ccccc2C(=O)c2sc(-c3ccco3)nc21` [Example n, 4,9-Dihydro-4,9-dioxo-2-(2-furyl)-naphtho[2,3-d]thiazole] gave an Emax ([1]; % of maximum contraction induced by hyperpotassic solutions) of 24 ± 3%, an EC50 ([1]; read-out: ED50 (the source's name)) of 110 nM and an EC50 (jugular vein of the rat) of 50 nM. For the same compound, the EC50 [2] was 300 nM, the EC50 (carotid arteries of rats) was 300 nM and the “contraction of basilar artery” value [3] was “contracts”. The “volume of pulmonary exudate” value [4] was “significantly decreases the volume of pulmonary exudate” and the arterial pressure [5] was “does not affect the arterial pressure”.
